From PubChem BioAssay (NCI)
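These data come from cells grown in 96-well plates and exposed to compound for 48 hours at five concentrations. The concentration for 50% growth inhibition is given as GI50. Definition used: TGI = concentration required for complete inhibition of growth.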 Where a SMILES comes first, the peptide text is derived from it. [ ]: non-standard residue; d: D form. ξ: configuration not given here. ξ2Thi = NC(Cc1cccs1)C(=O)O; ξR = N=C(N)NCCCC(N)C(=O)O; ξI = CCC(C)C(N)C(=O)O; ξL = CC(C)CC(N)C(=O)O; ξK = NCCCCC(N)C(=O)O; ξT = CC(O)C(N)C(=O)O; ξA = CC(N)C(=O)O

What was measured:
Experiment in all cases: NCI-60 cell line screen, 48 h
NCI-H460 lung = system: NCI-H460 lung
EKVX NSCLC = system: EKVX NSCLC
KM12 colon = system: KM12 colon
A498 renal = system: A498 renal
DU-145 prostate = system: DU-145 prostate
UACC-62 melanoma = system: UACC-62 melanoma
NCI-H23 lung = system: NCI-H23 lung
786-0 renal = system: 786-0 renal
OVCAR-4 ovarian = system: OVCAR-4 ovarian
SNB-19 CNS = system: SNB-19 CNS
MCF7 breast = system: MCF7 breast
U251 CNS = system: U251 CNS
SF-539 CNS = system: SF-539 CNS
HCT-15 colon = system: HCT-15 colon
M14 melanoma = system: M14 melanoma
IGROV1 ovarian = system: IGROV1 ovarian
CCRF-CEM leukemia = system: CCRF-CEM leukemia
SF-268 CNS = system: SF-268 CNS
MDA-MB-435 = system: MDA-MB-435
SK-MEL-2 melanoma = system: SK-MEL-2 melanoma
OVCAR-8 ovarian = system: OVCAR-8 ovarian
PC-3 prostate = system: PC-3 prostate
HL-60(TB) leukemia = system: HL-60(TB) leukemia
SK-OV-3 ovarian = system: SK-OV-3 ovarian
LOX IMVI melanoma = system: LOX IMVI melanoma
HOP-62 NSCLC = system: HOP-62 NSCLC
SN12C renal = system: SN12C renal
NCI-H226 lung = system: NCI-H226 lung
HCT-116 colon = system: HCT-116 colon
A549 NSCLC = system: A549 NSCLC
SF-295 CNS = system: SF-295 CNS
SR leukemia = system: SR leukemia
SNB-75 CNS = system: SNB-75 CNS
BT-549 breast = system: BT-549 breast
HCC-2998 colon = system: HCC-2998 colon
T-47D breast = system: T-47D breast
SK-MEL-5 melanoma = system: SK-MEL-5 melanoma
OVCAR-3 ovarian = system: OVCAR-3 ovarian
MOLT-4 leukemia = system: MOLT-4 leukemia
MALME-3M melanoma = system: MALME-3M melanoma
K-562 leukemia = system: K-562 leukemia
NCI/ADR-RES ovarian = system: NCI/ADR-RES ovarian
RXF 393 renal = system: RXF 393 renal
UO-31 renal = system: UO-31 renal
COLO 205 colon = system: COLO 205 colon
ACHN renal = system: ACHN renal
CAKI-1 renal = system: CAKI-1 renal
NCI-H522 lung = system: NCI-H522 lung
OVCAR-5 ovarian = system: OVCAR-5 ovarian
RPMI-8226 leukemia = system: RPMI-8226 leukemia
HT29 colon = system: HT29 colon
HOP-92 NSCLC = system: HOP-92 NSCLC
TK-10 renal = system: TK-10 renal
MDA-MB-231 breast = system: MDA-MB-231 breast
UACC-257 melanoma = system: UACC-257 melanoma
SK-MEL-28 melanoma = system: SK-MEL-28 melanoma
SW-620 colon = system: SW-620 colon

## F
NCI-H460 lung
  GI50: 5410 µM
  TGI: > 6870 µM
EKVX NSCLC
  GI50: 2100 µM
  TGI: 5220 µM
KM12 colon
  GI50: 2610 µM
  TGI: > 6870 µM
A498 renal
  GI50: 1620 µM
  TGI: 4390 µM
DU-145 prostate
  GI50: 2800 µM
  TGI: > 6870 µM
UACC-62 melanoma
  GI50: 1550 µM
  TGI: 3100 µM
NCI-H23 lung
  GI50: 5260 µM
  TGI: > 6870 µM
786-0 renal
  GI50: 2550 µM
  TGI: > 6870 µM
OVCAR-4 ovarian
  GI50: > 6870 µM
  TGI: > 6870 µM
SNB-19 CNS
  GI50: 6220 µM
  TGI: > 6870 µM
MCF7 breast
  GI50: 4020 µM
  TGI: > 6870 µM
U251 CNS
  GI50: 2870 µM
  TGI: > 6870 µM
SF-539 CNS
  GI50: 1770 µM
  TGI: 4620 µM
HCT-15 colon
  GI50: 3800 µM
  TGI: > 6870 µM
M14 melanoma
  GI50: 2260 µM
  TGI: 5900 µM
IGROV1 ovarian
  GI50: 2800 µM
  TGI: > 6870 µM
CCRF-CEM leukemia
  GI50: 4540 µM
  TGI: > 6870 µM
SF-268 CNS
  GI50: 3540 µM
  TGI: > 6870 µM
MDA-MB-435
  GI50: 2080 µM
  TGI: 5500 µM
SK-MEL-2 melanoma
  GI50: 1440 µM
  TGI: 2890 µM
OVCAR-8 ovarian
  GI50: 3250 µM
  TGI: > 6870 µM
PC-3 prostate
  GI50: 3920 µM
  TGI: > 6870 µM
HL-60(TB) leukemia
  GI50: 2360 µM
  TGI: > 6870 µM
SK-OV-3 ovarian
  GI50: 3680 µM
  TGI: > 6870 µM
LOX IMVI melanoma
  GI50: 2290 µM
  TGI: > 6870 µM
HOP-62 NSCLC
  GI50: 2560 µM
  TGI: > 6870 µM
SN12C renal
  GI50: 3270 µM
  TGI: > 6870 µM
NCI-H226 lung
  GI50: > 6870 µM
  TGI: > 6870 µM
HCT-116 colon
  GI50: 2820 µM
  TGI: > 6870 µM
A549 NSCLC
  GI50: 2730 µM
  TGI: > 6870 µM
SF-295 CNS
  GI50: 2050 µM
  TGI: 6380 µM
SR leukemia
  GI50: > 6870 µM
  TGI: > 6870 µM
SNB-75 CNS
  GI50: 2160 µM
  TGI: 5570 µM
BT-549 breast
  GI50: 3050 µM
  TGI: > 6870 µM
HCC-2998 colon
  GI50: 2610 µM
  TGI: 6190 µM
T-47D breast
  GI50: 2100 µM
  TGI: 5670 µM
SK-MEL-5 melanoma
  GI50: 1420 µM
  TGI: 2700 µM
OVCAR-3 ovarian
  GI50: > 6870 µM
  TGI: > 6870 µM
MOLT-4 leukemia
  GI50: > 6870 µM
  TGI: > 6870 µM
MALME-3M melanoma
  GI50: 1920 µM
  TGI: 5060 µM
K-562 leukemia
  GI50: 3630 µM
  TGI: > 6870 µM
NCI/ADR-RES ovarian
  GI50: 2530 µM
  TGI: > 6870 µM
RXF 393 renal
  GI50: 2360 µM
  TGI: 5200 µM
UO-31 renal
  GI50: 1790 µM
  TGI: 6220 µM
COLO 205 colon
  GI50: 2830 µM
  TGI: > 6870 µM
ACHN renal
  GI50: 3050 µM
  TGI: > 6870 µM
CAKI-1 renal
  GI50: 3220 µM
  TGI: > 6870 µM
NCI-H522 lung
  GI50: 4970 µM
  TGI: > 6870 µM
OVCAR-5 ovarian
  GI50: 2560 µM
  TGI: > 6870 µM
RPMI-8226 leukemia
  GI50: 3060 µM
  TGI: > 6870 µM
HT29 colon
  GI50: 2110 µM
  TGI: 6180 µM
HOP-92 NSCLC
  GI50: 1850 µM
  TGI: > 6870 µM
TK-10 renal
  GI50: 3400 µM
  TGI: > 6870 µM
MDA-MB-231 breast
  GI50: 2660 µM
  TGI: > 6870 µM
UACC-257 melanoma
  GI50: 2160 µM
  TGI: 4940 µM

## CCN(CC)CCOCC[C@H]1CC[C@H]2[C@@H]3[C@H](C)Cc4cc(OS(N)(=O)=O)ccc4[C@H]3CC[C@]12C
NCI-H460 lung
  GI50: 1.23 µM
  TGI: 2.56 µM
EKVX NSCLC
  GI50: 0.765 µM
  TGI: 3.65 µM
KM12 colon
  GI50: 1.25 µM
  TGI: 2.55 µM
A498 renal
  GI50: 1.54 µM
  TGI: 3.96 µM
DU-145 prostate
  GI50: 1.48 µM
  TGI: 2.94 µM
NCI-H23 lung
  GI50: 1.06 µM
  TGI: 2.92 µM
786-0 renal
  GI50: 1.28 µM
  TGI: 2.6 µM
OVCAR-4 ovarian
  GI50: 0.806 µM
  TGI: 2.29 µM
SK-MEL-28 melanoma
  GI50: 1.27 µM
  TGI: 2.53 µM
SNB-19 CNS
  GI50: 1.71 µM
  TGI: 3.17 µM
MCF7 breast
  GI50: 0.219 µM
  TGI: 2.28 µM
U251 CNS
  GI50: 1.18 µM
  TGI: 2.59 µM
SF-539 CNS
  GI50: 0.654 µM
  TGI: 1.87 µM
HCT-15 colon
  GI50: 1.66 µM
  TGI: 4.72 µM
M14 melanoma
  GI50: 1.26 µM
  TGI: 2.59 µM
IGROV1 ovarian
  GI50: 2.41 µM
  TGI: 8 µM
CCRF-CEM leukemia
  GI50: 1.14 µM
  TGI: 4.34 µM
SF-268 CNS
  GI50: 1.31 µM
  TGI: 2.66 µM
SK-MEL-2 melanoma
  GI50: 2.32 µM
  TGI: 4.45 µM
OVCAR-8 ovarian
  GI50: 2.05 µM
  TGI: 5.67 µM
PC-3 prostate
  GI50: 1.57 µM
  TGI: 4.48 µM
HL-60(TB) leukemia
  GI50: 1.64 µM
  TGI: 3.87 µM
SK-OV-3 ovarian
  GI50: 1.49 µM
  TGI: 3.2 µM
LOX IMVI melanoma
  GI50: 1.33 µM
  TGI: 2.77 µM
HOP-62 NSCLC
  GI50: 1.43 µM
  TGI: 2.88 µM
SN12C renal
  GI50: 1.19 µM
  TGI: 2.86 µM
HCT-116 colon
  GI50: 0.696 µM
  TGI: 2.08 µM
SW-620 colon
  GI50: 1.38 µM
  TGI: 2.75 µM
A549 NSCLC
  GI50: 1.8 µM
  TGI: 5.58 µM
SF-295 CNS
  GI50: 0.626 µM
  TGI: 2.14 µM
SR leukemia
  GI50: 0.329 µM
  TGI: 1.42 µM
SNB-75 CNS
  GI50: 1.24 µM
  TGI: 3.13 µM
BT-549 breast
  GI50: 1.67 µM
  TGI: 3.99 µM
HCC-2998 colon
  GI50: 1.63 µM
  TGI: 3.23 µM
T-47D breast
  GI50: 0.277 µM
  TGI: 2.94 µM
SK-MEL-5 melanoma
  GI50: 1.04 µM
  TGI: 2.23 µM
OVCAR-3 ovarian
  GI50: 1.21 µM
  TGI: 2.46 µM
MOLT-4 leukemia
  GI50: 1.53 µM
  TGI: 4.31 µM
K-562 leukemia
  GI50: 0.547 µM
  TGI: 2.26 µM
NCI/ADR-RES ovarian
  GI50: 1.57 µM
  TGI: 3.87 µM
RXF 393 renal
  GI50: 1.67 µM
  TGI: 4.12 µM
UO-31 renal
  GI50: 1.54 µM
  TGI: 3.7 µM
COLO 205 colon
  GI50: 0.62 µM
  TGI: 1.78 µM
ACHN renal
  GI50: 1.95 µM
  TGI: 5.33 µM
CAKI-1 renal
  GI50: 1.36 µM
  TGI: 2.97 µM
NCI-H522 lung
  GI50: 1.52 µM
  TGI: 3.39 µM
OVCAR-5 ovarian
  GI50: 2.52 µM
  TGI: 7.34 µM
RPMI-8226 leukemia
  GI50: 0.704 µM
  TGI: 2.67 µM
HT29 colon
  GI50: 0.244 µM
  TGI: 1.03 µM
HOP-92 NSCLC
  GI50: 1.39 µM
  TGI: 3.5 µM
TK-10 renal
  GI50: 1.3 µM
  TGI: 3.34 µM
MDA-MB-231 breast
  GI50: 1.5 µM
  TGI: 3.03 µM
UACC-257 melanoma
  GI50: 1.74 µM
  TGI: 3.34 µM

## CCC(C)C(NC(=O)C(Cc1cccs1)NC(=O)C(CC(C)C)NC(=O)C(CC(C)C)NC(=O)C(CCCCN)NC(=O)C(CCCN=C(N)N)NC(=O)[C@H](Cc1ccc(O)cc1)NC(=O)C(NC(=O)C(C)NC(=O)C(N)CC(C)C)C(C)O)C(=O)NC(CC(C)C)C(N)=O (stereo not given in full) (H-[ξL][ξA][ξT]Y[ξR][ξK][ξL][ξL][ξ2Thi][ξI][ξL]-NH2)
NCI-H23 lung
  TGI: > 50 µM
NCI-H226 lung
  TGI: > 50 µM
BT-549 breast
  TGI: > 50 µM
UACC-257 melanoma
  TGI: > 50 µM
